For four compounds, EC50, Ki and IC50 results are on record in paper PMC4627794, “Non-Selective Cannabinoid Receptor Antagonists, Hinokiresinols Reduce Infiltration of Microglia/Macrophages into Ischemic Brain Lesions in Rat via Modulating 2-Arachidonolyglycerol-Induced Migration and Mitochondrial Activity” (PLoS ONE, 2015).

The target in assay [1] is T1, CB1R (U2 OS cells, reporter gene assay) (Homo sapiens, UniProt P21554).
T1 construct: gene CNR1; receptor stably expressed in U2 OS cells
In words: SRE-luciferase reporter gene assay, agonism. The note with it: agonist mode. It is filed as cell-based.

In assay [2] the target is T2, hCB2R (human CB2R) (Homo sapiens, UniProt P34972).
T2 construct: gene CNR2; full-length receptor stably expressed in CHO cells
The assay is described as follows: competition radioligand binding, [3H]CP-55, […].

In assay [3] the target is T1, CB1R (U2 OS cells, reporter gene assay). The assay is described as follows: SRE-luciferase reporter gene assay, antagonism. The format is cell-based. The text has this:
SRE-luciferase reporter gene assay, antagonism on CB1R (U2 OS cells, reporter gene assay) | antagonism for CB1R and CB2R with IC50 values in micromolar ranges

For assay [4], the target named is T2, hCB2R (human CB2R). In words: forskolin-stimulated cAMP accumulation, antagonism. The format is cell-based. The text has this: forskolin-stimulated cAMP accumulation, antagonism on hCB2R (human CB2R) | antagonism for CB1R and CB2R with IC50 values in micromolar ranges

T1 sequence (P21554 whole entry): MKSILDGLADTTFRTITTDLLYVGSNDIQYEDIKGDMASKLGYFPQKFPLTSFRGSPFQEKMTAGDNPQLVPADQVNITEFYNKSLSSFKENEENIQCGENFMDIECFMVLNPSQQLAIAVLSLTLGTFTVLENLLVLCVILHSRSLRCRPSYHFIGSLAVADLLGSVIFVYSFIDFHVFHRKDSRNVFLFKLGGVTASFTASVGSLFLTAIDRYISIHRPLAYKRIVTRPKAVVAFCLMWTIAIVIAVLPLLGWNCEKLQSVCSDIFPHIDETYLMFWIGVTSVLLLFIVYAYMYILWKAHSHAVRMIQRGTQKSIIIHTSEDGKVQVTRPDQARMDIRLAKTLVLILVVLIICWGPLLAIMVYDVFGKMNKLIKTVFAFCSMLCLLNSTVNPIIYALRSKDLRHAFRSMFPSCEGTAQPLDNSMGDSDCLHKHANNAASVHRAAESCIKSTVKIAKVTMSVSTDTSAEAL
T2 sequence (P34972 whole entry): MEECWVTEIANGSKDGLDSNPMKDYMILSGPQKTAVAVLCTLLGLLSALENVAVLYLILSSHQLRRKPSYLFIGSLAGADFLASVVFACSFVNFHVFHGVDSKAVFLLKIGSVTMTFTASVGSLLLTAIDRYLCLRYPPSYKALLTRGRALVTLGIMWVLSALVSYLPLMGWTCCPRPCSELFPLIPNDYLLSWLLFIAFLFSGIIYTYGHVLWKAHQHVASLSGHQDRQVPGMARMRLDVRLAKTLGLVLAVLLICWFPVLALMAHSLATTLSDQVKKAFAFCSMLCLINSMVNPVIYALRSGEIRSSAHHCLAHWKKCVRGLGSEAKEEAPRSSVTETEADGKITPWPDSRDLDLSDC

In assay [1], `CCCCCCC(C)(C)c1cc(O)c2c(c1)OC(C)(C)[C@@H]1CC=C(CO)C[C@@H]21` [Hu-210] had an EC50 of 0.000199 µM.
Compound `CN1CCCCC1Cn1cc(C(=O)c2cc([N+](=O)[O-])ccc2I)c2ccccc21` (centres unmarked) [AM-1241, reference compound] displayed a Ki in assay [2] of 0.0066 µM.
As for `C=C[C@@H](/C=C\c1ccc(O)cc1)c1ccc(O)cc1` [cis-hinokiresinol], the Ki in assay [2] came out at 12.2 µM. For the same compound, the IC50 in assay [3] worked out at 11.2 µM; in assay [4] it was 72.5 µM.
Take `C=C[C@@H](/C=C/c1ccc(O)cc1)c1ccc(O)cc1` [trans-hinokiresinol]: the affinity in assay [2], expressed as Ki, was 9.5 µM. Besides, the values for the IC50 in assay [3] and in assay [4] were 10.2 µM and 20.5 µM, respectively.
